Measurements: patent publication US8691986B2, “Azetidine and piperidine compounds useful as PDE10 inhibitors” (Amgen Inc., priority 2012, dated 2014)

Key:
PDE10 = PDE10 (Rattus norvegicus (Rat), UniProt Q9QYJ6); test: PDE10 ex vivo receptor occupancy (RO) screening in rat striatum; settings: oral; for receptor occupancy at 3 mg/kg: 3 mpk, 4 h (footnote C); for receptor occupancy at 10 mg/kg: 10 mpk
Protocol: The ex vivo screening protocol was approved by Amgen's Institutional Animal Care and Use Committee (IACUC) and in accordance with the National Institutes of Health Guide for Care and Use of Laboratory Animals in facilities accredited by the Association for the Assessment and Accreditation of Laboratory Animal Care (AALAC).
PDE10 inhibitors were dissolved in 2% Hydroxypropylmethylcellulose (HPMC), 1% Tween-80, pH 2.2 with methanesulfonic acid. Male Sprague Dawley® rats weighing 180-225 g (4 per group) were dosed orally with either vehicle or PDE10 inhibitors (3 mg/kg or 10 mg/kg) and then returned to their home cage to allow for absorption of the compounds. After one hour (with 10 mg/kg PDE10 inhibitor) or four hours (with 3 mg/kg or 10 mg/kg PDE10 inhibitor) rats were sacrificed by CO2 inhalation. Blood was obtained by heart puncture and plasma was frozen and stored at −80° C. for exposure analysis. Brains were removed and immediately frozen in chilled methylbutane, and stored at −80° C. until cutting. Three coronal brain slices per brain containing the striatum were cut at […] using a cryostat and placed onto microscope slides, air-dried and stored at −20° C. For radioligand binding experiments, slides were thawed at room temperature and then incubated with 1 nM a tritium labeled tracer compound (insert citation) in binding buffer (150 mM Phosphate-buffered saline containing 2 mM MgCl2 and 100 mM DTT, pH 7.4) for 1 minute at 4° C. To assess non-specific binding, slides containing adjacent brain sections were incubated in the same solution with addition of […] of an unlabelled, structurally unrelated PDE10 antagonist. Afterwards slides were washed 3 times in ice-cold binding buffer, dipped into distilled water to remove buffer salts, and dried under a stream of cold air. Emission of beta particles from the sections was counted for 8 hours in a Beta Imager 2000 (Biospace, Paris, France) and digitized and analyzed using M3 Vision software (Biospace, Paris, France). Total binding radioactivity in the striatum was measured as cpm/mm^2 in hand-drawn regions of interest and averaged across the three sections per brain. Non-specific binding was subtracted to obtain specific binding values and percent occupancy was calculated by setting vehicle specific binding as 0% occupancy.

human PDE2A1 = human PDE2A1 (Homo sapiens (Human), UniProt O00408); test: PDE2A inhibition, PDE IMAP TR-FRET assay; format: biochemical; settings: FAM-cAMP substrate
Protocol: Purified human PDE2A1 and PDE10A2 enzymes were obtained from BPS Bioscience (San Diego, Calif.). IMAP™ TR-FRET progressive binding system, FAM-cAMP substrate were from Molecular Devices (Sunnyvale, Calif.).
The PDE IMAP assay was conducted in a 384-well black Greiner polypropylene plate (Sigma, St. Louis, Mo.). PDE inhibitors were serial diluted in 100% DMSO and dispensed into assay plate at […] per well using Echo® Liquid Handling System from LABCYTE. Ten μL of PDE enzyme in IMAP reaction buffer (10 mM Tris-HCl, pH 7.2, 10 mM MgCl2, 0.05% NaN3, and 0.01% Tween-20) was added into the assay wells. The PDE enzyme concentration used was based on each lot of enzyme activity, to ensure enzyme reaction falls in a linear range under assay condition. 1.4 nM of PDE2 or […] PDE10 were used in the assay system. Enzyme was pre-incubated with inhibitors for 60 minutes at room temperature before addition of 10 uL of substrate addition, which results in 100 nM of FAM-cAMP in the reaction. Enzyme reaction was allowed to proceed at room temperature for 90 min, and the reaction is stopped by 55 μl addition of binding reagent according to manufacturer's recommendation. The mixture is further incubated at room temperature for additional 4 hours, and signal was read on an Envision multimode reader (PerkinElmer). Fluorescence signals were measured at 520 nm and 485 nm. The signal ratio at 520/485 nm corresponded to the generation of reaction product of AMP, and it was used in all data analysis. Values from DMSO-treated wells were normalized to POC=100, and no-enzyme wells were normalized to POC=0. IC50 values were determined by using the Genedata Screener V9.0.1. The curve fitting algorithm used for dose response data analysis in Genedata Screener is a custom implementation of a robust curve-fitting algorithm called ROUT (Robust regression with outlier detection) and uses a four-parameter logistical (4 PL) Hill model.

human PDE2A1, sequence (O00408 other isoform, or with tags, fused parts or gaps): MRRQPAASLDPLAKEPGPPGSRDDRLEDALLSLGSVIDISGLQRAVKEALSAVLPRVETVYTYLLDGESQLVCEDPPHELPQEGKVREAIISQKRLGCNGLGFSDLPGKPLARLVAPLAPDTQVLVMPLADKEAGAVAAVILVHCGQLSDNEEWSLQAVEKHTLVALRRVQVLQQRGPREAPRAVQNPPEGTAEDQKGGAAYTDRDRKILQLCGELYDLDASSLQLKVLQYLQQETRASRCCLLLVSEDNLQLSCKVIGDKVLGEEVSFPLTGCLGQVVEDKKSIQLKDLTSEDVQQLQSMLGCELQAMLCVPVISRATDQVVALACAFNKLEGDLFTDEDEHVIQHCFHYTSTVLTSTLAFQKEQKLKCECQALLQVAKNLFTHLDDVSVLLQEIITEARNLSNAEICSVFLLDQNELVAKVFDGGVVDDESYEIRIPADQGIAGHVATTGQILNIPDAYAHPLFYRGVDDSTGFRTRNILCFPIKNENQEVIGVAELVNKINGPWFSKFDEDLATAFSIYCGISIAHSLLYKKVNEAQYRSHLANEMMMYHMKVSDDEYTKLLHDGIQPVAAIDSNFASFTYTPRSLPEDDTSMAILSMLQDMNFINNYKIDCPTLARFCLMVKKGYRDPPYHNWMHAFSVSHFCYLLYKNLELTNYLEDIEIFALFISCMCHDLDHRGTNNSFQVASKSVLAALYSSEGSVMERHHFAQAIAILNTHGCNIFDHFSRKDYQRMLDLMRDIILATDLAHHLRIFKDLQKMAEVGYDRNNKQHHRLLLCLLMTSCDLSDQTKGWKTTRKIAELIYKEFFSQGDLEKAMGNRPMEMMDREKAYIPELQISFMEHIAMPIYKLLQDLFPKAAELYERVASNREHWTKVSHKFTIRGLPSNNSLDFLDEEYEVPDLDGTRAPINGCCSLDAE
PDE10, sequence (Q9QYJ6 whole entry): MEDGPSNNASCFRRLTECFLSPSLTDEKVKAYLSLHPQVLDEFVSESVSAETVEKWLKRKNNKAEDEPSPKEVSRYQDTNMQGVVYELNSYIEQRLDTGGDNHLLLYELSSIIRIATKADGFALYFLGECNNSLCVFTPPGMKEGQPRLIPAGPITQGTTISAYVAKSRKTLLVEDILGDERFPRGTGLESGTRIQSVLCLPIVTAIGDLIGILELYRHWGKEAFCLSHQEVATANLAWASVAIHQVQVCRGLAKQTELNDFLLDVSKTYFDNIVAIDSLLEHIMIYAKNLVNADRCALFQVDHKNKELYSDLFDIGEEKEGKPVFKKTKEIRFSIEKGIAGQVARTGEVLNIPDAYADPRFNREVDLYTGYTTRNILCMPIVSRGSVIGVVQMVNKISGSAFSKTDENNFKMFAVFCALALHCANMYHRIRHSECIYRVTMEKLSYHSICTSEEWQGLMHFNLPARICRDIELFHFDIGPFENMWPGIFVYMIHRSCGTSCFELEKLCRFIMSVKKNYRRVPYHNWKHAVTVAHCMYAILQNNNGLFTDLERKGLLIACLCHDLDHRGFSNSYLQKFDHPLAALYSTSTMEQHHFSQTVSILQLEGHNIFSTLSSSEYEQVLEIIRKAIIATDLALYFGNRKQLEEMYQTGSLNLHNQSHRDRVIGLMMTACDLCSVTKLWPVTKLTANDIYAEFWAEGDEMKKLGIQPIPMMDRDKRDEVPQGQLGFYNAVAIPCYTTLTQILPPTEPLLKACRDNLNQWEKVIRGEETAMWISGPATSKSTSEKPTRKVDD

receptor occupancy at 3 mg/kg (PDE10) [%] | receptor occupancy at 10 mg/kg (PDE10; 1 h (footnote A)) [%] | IC50 (human PDE2A1) [µM] | receptor occupancy at 10 mg/kg (PDE10; 4 h (footnote B)) [%] | Compound
62.6 | 85.4 | 10 | – | CNC(=O)c1ccc(-c2nccnc2C2CN(c3ncc4ccccc4n3)C2)cc1F [Example 6, 2-Fluoro-N-Methyl-4-(3-(1-(Quinazolin-2-Yl)Azetidin-3-Yl)Pyrazin-2-Yl)Benzamide]
58.8 | – | 10 | 79 | CNC(=O)c1ccc(-c2nccnc2C2CCN(c3ccc4ccc(Cl)cc4n3)CC2)cc1F [Example 1, 4-(3-(1-(7-Chloroquinolin-2-Yl)Piperidin-4-Yl)Pyrazin-2-Yl)-2-Fluoro-N-Methylbenzamide]
93.3 | – | 10 | – | CNC(=O)c1ccc(-c2nccnc2C2CCN(c3ccc4cc(F)ccc4n3)CC2)cc1F [Example 4, 2-Fluoro-4-(3-(1-(6-Fluoroquinolin-2-Yl)Piperidin-4-Yl)Pyrazin-2-Yl)-N-Methylbenzamide]
68.3 | – | 10 | – | CNC(=O)c1ccc(-c2nccnc2C2CCN(c3ccc4cccc(F)c4n3)CC2)cc1F [Example 5, 2-Fluoro-4-(3-(1-(8-Fluoroquinolin-2-Yl)Piperidin-4-Yl)Pyrazin-2-Yl)-N-Methylbenzamide]
110 | 93.2 | 10 | – | CNC(=O)c1ccc(-c2nccnc2C2CN(c3ccc4ccccc4n3)C2)cc1F [Example 7, 2-Fluoro-N-Methyl-4-(3-(1-(Quinolin-2-Yl)Azetidin-3-Yl) Pyrazin-2-Yl)Benzamide]
108 | 101 | 7.38 | – | CNC(=O)c1ccc(-c2nccnc2C2CN(c3ncc4ccc(Cl)cc4n3)C2)cc1F [Example 10, 4-(3-(1-(7-Chloroquinazolin-2-Yl)Azetidin-3-Yl)Pyrazin-2-Yl)-2-Fluoro-N-Methylbenzamide]
91.4 | – | 10 | – | CNC(=O)c1ccc(-c2nccnc2C2CN(c3ncc4cc(F)c(Cl)cc4n3)C2)cc1F [Example 12, 4-(3-(1-(7-Chloro-6-Fluoroquinazolin-2-Yl)Azetidin-3-Yl)Pyrazin-2-Yl)-2-Fluoro-N-Methylbenzamide]
77 | – | 10 | – | CNC(=O)c1ccc(-c2nccnc2C2CN(c3ccc4cc(F)ccc4n3)C2)cc1F [Example 13, 2-Fluoro-4-(3-(1-(6-Fluoroquinolin-2-Yl)Azetidin-3-Yl) Pyrazin-2-yl)-N-Methylbenzamide]
78.5 | – | 10 | – | CNC(=O)c1ccc(-c2nccnc2C2CN(c3ccc4ncc(Cl)cc4n3)C2)cc1F [Example 14, 4-(3-(1-(7-Chloro-1,5-Naphthyridin-2-Yl)Azetidin-3-Yl)Pyrazin-2-Yl)-2-Fluoro-N-Methylbenzamide]
– | – | 10 | 112 | CNC(=O)c1ccc(-c2nccnc2C2CCN(c3ccc4ccc(F)cc4n3)CC2)cc1F [Example 2, 2-Fluoro-4-(3-(1-(7-Fluoroquinolin-2-Yl)Piperidin-4-Yl) Pyrazin-2-Yl)-N-Methylbenzamide]
97.4 | – | 10 | – | CNC(=O)c1ccc(-c2nccnc2C2CCN(c3ccc4ccccc4n3)CC2)cc1F [Example 3, 2-Fluoro-N-Methyl-4-(3-(1-(Quinolin-2-Yl)Piperidin-4-Yl)Pyrazin-2-Yl)Benzamide]
61.8 | 123 | 10 | 87.1 | CNC(=O)c1ccc(-c2nccnc2C2CN(c3ncc4ccc(F)cc4n3)C2)cc1F [Example 9, 2-Fluoro-4-(3-(1-(7-Fluoroquinazolin-2-Yl)Azetidin-3-Yl)Pyrazin-2-Yl)-N-Methylbenzamide]
83.5 | 134 | 10 | – | CNC(=O)c1ccc(-c2nccnc2C2CN(c3ccc4ccc(F)cc4n3)C2)cc1F [Example 8, 2-Fluoro-4-(3-(1-(7-Fluoroquinolin-2-Yl)Azetidin-3-Yl) Pyrazin-2-Yl)-N-Methylbenzamide]
67.5 | – | 10 | 80 | CNC(=O)c1ccc(-c2nccnc2C2CN(c3ncc4cc(F)ccc4n3)C2)cc1F [Example 11, 2-Fluoro-4-(3-(1-(6-Fluoroquinazolin-2-Yl)Azetidin-3-Yl)Pyrazin-2-Yl)-N-Methylbenzamide]
